Source: ChEMBL document CHEMBL4000213, “New antiprotozoal agents: Synthesis and biological evaluation of different 4-(7-chloroquinolin-4-yl) piperazin-1-yl)pyrrolidin-2-yl)methanone derivatives” (Bioorg Med Chem Lett, 2017)
The source made the active and inactive calls. No cut-off for these calls is given here.

Legend:
Plasmodium falciparum = test: Antimalarial activity against chloroquine-sensitive Plasmodium falciparum NF54 infected in erythrocytes measured after 48 hrs by Malstat/nitroblue tetrazolium/phenazine ethosulphate reagent based LDH assay; assay type: functional, cell-based; conditions: NF54, 48 h
[1] = Selectivity index, ratio of IC50 for cytotoxicity against HEK293 cells to IC50 for anti-malarial activity against chloroquine-sensitive Plasmodium falciparum NF54 infected in erythrocytes; assay type: toxicity, cell-based; conditions: human; read-out: Ratio IC50
Anopheles arabiensis [2] = test: Larvicidal activity against Anopheles arabiensis KGB at 0.5 uM measured after 24 hrs relative to control; assay type: functional
Entamoeba histolytica = test: Anti-amoebic activity against trophozoites of Entamoeba histolytica HM-1:IMSS gassed with nitrogen for 10 mins measured after 72 hrs by eosin staining based micro dilution method; assay type: functional
[3] = Antioxidant activity assessed as inhibition of ferrous chloride-induced lipid peroxidation at 50 uM preincubated for 24 hrs followed by ferrous chloride addition relative to control; assay type: functional
HEK293 = test: Cytotoxicity against HEK293 cells measured after 48 hrs by MTT assay; assay type: cell-based; conditions: Homo sapiens, HEK293, 48 h
Anopheles arabiensis [4] = test: Larvicidal activity against Anopheles arabiensis KGB measured after 24 hrs; assay type: functional; conditions: read-out: LD50 (the source's name)

| SMILES | IC50 (Plasmodium falciparum) [µM] | selectivity ratio [1] | Activity (Anopheles arabiensis [2]) | IC50 (Entamoeba histolytica) [µM] | inhibition [3] [%] | IC50 (HEK293) [µM] | LC50 (Anopheles arabiensis [4]) [µM] |
| --- | --- | --- | --- | --- | --- | --- | --- |
| O=C([C@H]1CCCN1S(=O)(=O)c1ccc2ccccc2c1)N1CCN(c2ccnc3cc(Cl)ccc23)CC1 | 3.45 | 7.06 | inactive | 0.34 | < 1 | 24.4 | – |
| CCCS(=O)(=O)N1CCC[C@@H]1C(=O)N1CCN(c2ccnc3cc(Cl)ccc23)CC1 | – | – | inactive | 6.91 | < 1 | – | – |
| O=C([C@H]1CCCN1S(=O)(=O)c1ccc(Cl)cc1)N1CCN(c2ccnc3cc(Cl)ccc23)CC1 | 6.33 | 7.27 | inactive | 0.31 | < 1 | 46 | – |
| Clc1ccc(C(c2ccc(Cl)cc2)C(Cl)(Cl)Cl)cc1 [CHLOROPHENOTHANE] | – | – | 100% | – | – | – | 0.5 |
| Cc1ccc(S(=O)(=O)N2CCC[C@@H]2C(=O)N2CCN(c3ccnc4cc(Cl)ccc34)CC2)cc1 | 1.42 | 57.1 | inactive | 0.34 | < 1 | 81.2 | – |
| O=C(CN1CCN(c2ccnc3cc(Cl)ccc23)CC1)NC1CCCCC1 | – | – | – | 0.86 | – | – | – |
| O=C(CN1CCN(c2ccnc3cc(Cl)ccc23)CC1)Nc1ccc(F)cc1 | – | – | – | 0.41 | – | – | – |
| C=C[C@H]1CN2CC[C@H]1C[C@H]2[C@H](O)c1ccnc2ccc(OC)cc12 [QUININE] | 0.18 | 1490 | – | – | – | 276 | – |
| Cc1c(C)c2c(c(C)c1O)CCC(C)(C(=O)O)O2 (stereo unspecified) | – | – | – | – | 74 | – | – |
| COc1ccc(S(=O)(=O)N2CCC[C@@H]2C(=O)N2CCN(c3ccnc4cc(Cl)ccc34)CC2)cc1 | 4.02 | 14.3 | inactive | 5.73 | < 1 | 57.7 | – |
| CC(C)(C)c1ccc(S(=O)(=O)N2CCC[C@@H]2C(=O)N2CCN(c3ccnc4cc(Cl)ccc34)CC2)cc1 | 3.21 | 16.5 | inactive | 0.77 | < 1 | 53.1 | – |
| Cc1cc(C)c(S(=O)(=O)N2CCC[C@@H]2C(=O)N2CCN(c3ccnc4cc(Cl)ccc34)CC2)c(C)c1 | 19.6 | 0.75 | inactive | 0.14 | < 1 | 14.7 | – |
| O=C([C@H]1CCCN1S(=O)(=O)c1cc(Cl)ccc1Cl)N1CCN(c2ccnc3cc(Cl)ccc23)CC1 | 4.21 | 9.02 | inactive | 8.89 | < 1 | 38 | – |
| O=C([C@H]1CCCN1S(=O)(=O)c1ccccc1)N1CCN(c2ccnc3cc(Cl)ccc23)CC1 | 5.33 | 12 | inactive | 1.26 | < 1 | 64.1 | – |
| CC[C@@]1(O)C(=O)OCc2c1cc1n(c2=O)Cc2cc3ccccc3nc2-1 [CAMPTOTHECIN] | – | – | – | – | – | 0.01 | – |
| O=C([C@H]1CCCN1S(=O)(=O)c1ccccc1[N+](=O)[O-])N1CCN(c2ccnc3cc(Cl)ccc23)CC1 | 4.08 | 14.2 | inactive | 2.08 | < 1 | 57.7 | – |
